Literature values, collected in patent US10398709B2, “Compositions for the treatment of cataracts” (Catacore, Inc., priority 2015, dated 2019).

What was measured:
[1] = system: preformed protein aggregates (mutant crystallins); conditions: both in vitro and in cell-transfection experiments
[2] = system: dissected rabbit cataractous lenses; conditions: dissected rabbit cataractous lenses in vitro
cataract = conditions: in vivo in dogs

Compound	preformed protein aggregates [1]	cataract severity and transparency [2]	cataract severity (cataract)
CC(C)CCC[C@@H](C)[C@H]1CC[C@H]2[C@@H]3CC=C4C[C@@H](O)CC[C@]4(C)[C@H]3CC[C@]12C [cholesterol]	not	–	–
CC(C)=CCC[C@@H](C)[C@H]1CC[C@@]2(C)C3=C(CC[C@]12C)[C@@]1(C)CC[C@H](O)C(C)(C)[C@@H]1CC3 [lanosterol, 3β-hydroxy-8,24-lanostadiene]	significantly decreased	reduce cataract severity and increase transparency	reduce cataract severity
